From patent US20240308953A1, “SOLUBLE CHELATOR FOR TARGETING RECOMBINANT PROTEINS” (CUBE BIOTECH GMBH, priority 2021, published 2024)

Tested on: His-tagged proteins
Experiment: surface plasmon resonance, immobilized chelator, protein loss during wash
Format: binding
Settings: immobilized for surface plasmon resonance measurements
From the text: The affinity of the soluble chelator of the present invention for His-tagged proteins is much higher, compared to the NTA analoga. […] So, a stable, non-reversible protein binding via affinity bonds between metal and poly-His is feasible.

O=C(O)CN(CC(=O)O)CC(=O)O [NTA, nitrilotriacetic acid]
protein loss from the chip: protein leaching during wash
